This is an account of results in patent US10160867B2, “Benzoxaborole-containing coating resistant to cellulose-supportable fungus” (THE PENN STATE RESEARCH FOUNDATION, priority 2015, dated 2018).

The term MIC denotes the least concentration at which growth counts as inhibited.

The subject of data set [1] is Cladosporium cladosporioides. In words: 3 day MIC, broth microdilution in 25% PDB. Format: cell-based. As to conditions: 72 h. The procedure, abridged: (§1)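 Modified CLSI M38-A2 broth microdilution; spore inoculum (in water with 0.1% Tween 20, counted by hemocytometer) at final 0.4-1×10^5 spores/mL. Compounds from DMSO stocks, final about 0.5-2% v/v DMSO. Sealed plates incubated at about 25° C; growth checked at 48 and 72 hours.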
In general terms: In broth dilution the organism is exposed to a series of concentrations in liquid medium.

The subject of data set [2] is Mucor spp. Briefly: 3 day MIC, broth microdilution in 25% PDB. The data set is classed as cell-based. The following applies: 72 h. The procedure, abridged:
as §1

The subject of data set [3] is Aspergillus flavus. Briefly: 3 day MIC, broth microdilution in 25% PDB. The data set is classed as cell-based. The following applies: 72 h. The procedure, abridged:
as §1

Data set [4] deals with Fusarium oxysparum ST-33. Briefly: 3 day MIC, broth microdilution in 25% PDB. As to conditions: ST33, 72 h. Format: cell-based. The procedure, abridged: as §1
Data set [5] relates to Aureobasidium pullulans. In words: 3 day MIC, broth microdilution in 25% PDB. Format: cell-based. The following applies: 72 h. The method, boiled down: as §1
The subject of data set [6] is Rhizopus spp. Briefly: 3 day MIC, broth microdilution in 25% PDB. Format: cell-based. As to conditions: 72 h. The procedure, abridged: as §1
Data set [7] has as its system Aspergillus niger. Briefly: 3 day MIC, broth microdilution in 25% PDB. The data set is classed as cell-based. The following applies: 72 h. The procedure, abridged:
as §1

Data set [8] relates to Alternaria alternata. Briefly: Fungus resistance test for painted surfaces containing antifungal additives (defacement rating). Format: cell-based. The arrangement: key: 10 = no defacement, 0 = completely defaced. As for the experimental part: (§2) A Defacement Rating is measured by estimating the percentage of surface defacement with 10 being no defacement and 0 begin completely defaced.
(§3) This test was used to evaluate the resistance of paint films containing antifungal additives to surface fungal growth.
(§4) Olympic® Home interior flat latex paint (PPG Industries, Pittsburgh, Pa.) and Valspar® QuikHide White flat interior paint (Valspar Corporation, Minneapolis, Minn.) were used for all studies unless otherwise noted. Stock solutions of the antifungal additives of interest were prepared in reagent grade dimethyl sulfoxide (DMSO; Alfa Aesar, Ward Hill, Mass.). Additives were spiked (by adding appropriate amounts of the antifungal stock solutions) into the liquid paint at specified concentrations. Samples of the additive-spiked paint were vigorously mixed with a vortex mixer for at least one minute to ensure uniform dispersion of the additive in the paint. […] Studies that use other brands of paint followed the same protocol as described for those using the Olympic® Home interior flat latex paint and Valspar® QuikHide paint.
(§5) Test surfaces were prepared in triplicate. In most cases, the tested conditions were repeated on a different date, again in triplicate. […] Two coats of paint were applied with a polyester brush to completely cover both faces of the filter paper disc, allowing at least four hours drying time between coats.
(§6) Nutrient-Salts Agar (NSA) medium was prepared according to ASTM method G21-13 in 100×15 mm sterile polystyrene petri dishes (VWR® Radnor, Pa.) with a solidified agar layer of about 3 to about 6 mm (⅛ to ¼ in.) in depth. The agar was allowed to solidify for at least 24 hours before being used. The painted test filter paper discs were placed in the center of the agar plates in a biosafety hood while wearing clean nitrile gloves.
(§7) The paint coatings were evaluated against three representative cellulose-supportable fungi: Stachybotrys chartarum, Penicillium chrysogenum, and Alternaria alternata. […] Fungal isolates of Alternaria alternata and Penicillium chrysogenum were obtained from the Plant Pathology and Environmental Microbiology Department at Penn State University.
(§8) A spore suspension of each of these fungi was prepared by pouring a 20-mL portion of autoclaved deionized water containing 0.01% Tween® 20 onto a subculture of each fungal species. Spores were counted with the use of a hemocytometer (Hausser Scientific, Horsham, Pa.) under a compound light microscope. Spore suspensions of Stachybotrys chartarum and Penicillium chrysogenum were diluted to 1×10^6 spores/mL with autoclaved deionized water. Spore suspensions of Alternaria alternata were used “as is” in the range of 200,000 to 400,000 spores/mL.
(§9) Painted test surfaces were inoculated with a spray bottle or with a sterile cotton-tipped applicator. To inoculate the sample with a spray bottle, the spore suspension was sprayed twice on the painted test discs with an autoclaved spray bottle that delivered approximately 0.14 g of fluid per spray. To inoculate the sample with a cotton-tipped applicator, an autoclaved cotton-tipped applicator was submerged in approximately 400 μL of the spore inoculum solution (spore concentrations described above) and applied evenly over the surface of the painted test surface twice. A fresh autoclaved cotton-tipped applicator was used for the application of each painted disc. All the paint studies with Alternaria alternata and Stachybotrys chartarum were inoculated using the spray bottle method. For studies with Penicillium chrysogenum using Olympic® Home paint, the spray bottle inoculation method was used. For studies with Penicillium chrysogenum using Valspar® QuikHide paint, the cotton-tipped applicator inoculation method was used.
(§10) After inoculation, the NSA agar plates were sealed with Parafilm®.

The subject of data set [9] is Stachybotrys chartarum. The description is as above. The arrangement: key: 10 = no defacement, 0 = completely defaced. Format: cell-based. As for the experimental part: as §2, §3, §4, §5, §6, §7, §8, §9, §10
Data set [10] has as its system Penicillium chrysogenum. The description is as above. Format: cell-based. The arrangement: key: 10 = no defacement, 0 = completely defaced. The procedure:
as §2, §3, §4, §5, §6, §7, §8, §9, §10

For data set [11] the following is noted: commercially available fungicidal agents; cited from earlier work.
[12] abbreviates: +10 μg/mL in Olympic Home paint, 7 days.
Where [13] appears, read: +10 μg/mL in Olympic Home paint, 14 days.
Where [14] appears, read: +10 μg/mL in Olympic Home paint, 21 days.
[15] abbreviates: +100 μg/mL in Olympic Home paint, 7 days.
Setting [16] is: +100 μg/mL in Olympic Home paint, 14 days.
The mark [17] stands for this setting: +100 μg/mL in Olympic Home paint, 21 days.
Where [18] appears, read: +200 μg/mL in Olympic Home paint, 7 days.
[19] abbreviates: +200 μg/mL in Olympic Home paint, 14 days.
The mark [20] stands for this setting: +200 μg/mL in Olympic Home paint, 21 days.

In brackets after ≈: the same amount, converted by molar mass.

As for `OB1OCc2cc(Cl)ccc21` [Compound B8, 5-chloro-1,3-dihydro-2,1-benzoxaborol-1-ol], the MIC in data set [1] was 0.1 mg/L (≈ 0.594 µM); in [2], 0.5 mg/L (≈ 2.97 µM); in data set [3], 1 mg/L (≈ 5.94 µM); in data set [4], 0.25 mg/L (≈ 1.48 µM); in data set [5], 0.125 mg/L (≈ 0.742 µM); in data set [6], 4 mg/L (≈ 23.8 µM). In addition, in [7], inhibition of growth (MIC) required 0.25 mg/L (≈ 1.48 µM). The “Average defacement rating ± standard deviation” value in [8] (setting [12]) is 5.0 ± 1.0; in data set [8] (setting [13]) it was 4.7 ± 1.2; in [8] (setting [14]), 4.7 ± 1.2; in [8] (setting [15]), 9.9±0.4; in data set [8] (setting [16]) it was 8.1 ± 1.5; in data set [8] (setting [17]) it was 7.8±1.5. The “Average defacement rating ± standard deviation” value in [9] (setting [12]) is listed as 5.7 ± 4.9; in data set [9] (setting [13]), 0.0 ± 0.0; in data set [9] (setting [14]), 0.0 ± 0.0; in [9] (setting [15]), 9.9±0.4; in [9] (setting [16]) it was 8.1 ± 1.9; in [10] (setting [15]), 7.3 ± 1.3. For the same compound, the “Average defacement rating ± standard deviation” value in data set [10] (setting [16]) came to 0.0 ± 0.0; in data set [10] (setting [17]) it was 0.0 ± 0.0; in data set [10] (setting [18]) it was 10.0±0.0; in data set [10] (setting [19]), 9.5 ± 1.2; in data set [10] (setting [20]), 8.7 ± 2.3.

Consider `c1ccc2[nH]c(-c3cscn3)nc2c1` [Thiabendazole], for which the Solubility in water in data set [11] is 8 µg/mL (≈ 39.8 µM). Besides, the MIC is 0.8 mg/L (≈ 3.98 µM) in [1]; greater than 200 mg/L in data set [2]; 12.5 mg/L (≈ 62.1 µM) in data set [3]; 25 mg/L (≈ 124 µM) in data set [4]; 0.4 mg/L (≈ 1.99 µM) in [5]; 400 mg/L (≈ 1990 µM) in data set [6]. For the same compound, the MIC in [7] stood at 12.5 mg/L (≈ 62.1 µM). Further, the “Average defacement rating ± standard deviation” value in [8] (setting [15]) is reported as 0.0 ± 0.0; in data set [8] (setting [16]), 0.0 ± 0.0; in data set [8] (setting [17]), 0.0 ± 0.0; in data set [9] (setting [15]), 1.3 ± 0.3; in [9] (setting [16]), 0.0 ± 0.0; in [9] (setting [17]), 0.0 ± 0.0. Besides, the “Average defacement rating ± standard deviation” value in data set [10] (setting [15]) is on record as 4.1 ± 0.0; in [10] (setting [16]) it was 0.4 ± 0.4; in data set [10] (setting [17]), 0.0 ± 0.0; in data set [10] (setting [18]), 9.3 ± 1.2; in data set [10] (setting [19]), 4.0 ± 4.7; in data set [10] (setting [20]) it was 1.7 ± 3.6. Moreover, the “Average defacement rating ± standard deviation” value in data set [10] (+200 μg/mL in Valspar QuikHide paint, 7 days) was 10.0 ± 0.0; in [10] (+200 μg/mL in Valspar QuikHide paint, 14 days) it was 9.3 ± 1.2; in data set [10] (+200 μg/mL in Valspar QuikHide paint, 21 days), 4.7 ± 4.6.
